{"source": "paper PMC9919579", "about": "(Molecules, 2023)", "data": [{"molecular_target": "T1, vaccinia virus TOP1 (vaccinia DNA Topoisomerase I) (Vaccinia virus WR, UniProt P68698)", "T1 construct": "gene OPG111; TOP1 described as 314 amino acids; amine-coupled to GLH chip", "test": "biochemical", "assay_type": "binding", "units": {"Kd": "µM"}, "values": [{"smiles": "C[C@@H]1O[C@@H](Oc2c(-c3cc(O)c(O)c(O)c3)oc3cc(O)cc(O)c3c2=O)[C@H](O)[C@H](O)[C@H]1O", "note": "[Myricitrin]", "Kd": 3.54}, {"smiles": "CC1COc2c(N3CCN(C)CC3)c(F)cc3c(=O)c(C(=O)O)cn1c23", "note": "(stereo not shown) [Ofloxacin]", "Kd": 5.46}, {"smiles": "C[C@@H]1O[C@@H](Oc2c(-c3ccc(O)c(O)c3)oc3cc(O)cc(O)c3c2=O)[C@H](O)[C@H](O)[C@H]1O", "note": "[Quercitrin]", "Kd": 4.77}, {"smiles": "O=C(/C=C/c1ccc(O)c(O)c1)O[C@H](Cc1ccc(O)c(O)c1)C(=O)O", "note": "[Rosmarinic acid]", "Kd": 2.16}]}]}
